Experimental data published in patent US20260258017A1, “CO-CRYSTAL FORMS OF SELINEXOR” (Karyopharm Therapeutics Inc., priority 2019, published 2026).

Experiments:
[1] = DVS moisture sorption isotherm; format: physicochemical; settings: 25° C., 0-90% RH, 10% RH intervals
Description: Sorption isotherms are obtained using a TA Instruments Q5000 SA DVS. The sample temperature is maintained at 25° C. by the instrument controls. The humidity is controlled by mixing streams of dry and wet nitrogen, with a total flow rate of 200 ml/min. The relative humidity is measured by a calibrated probe (dynamic range of […]), located near the sample. The weight change, (mass relaxation) of the sample as a function of % RH is constantly monitored by a microbalance (accuracy 0.0001 mg). Typically, 3-10 mg of sample is placed in a tared mesh stainless steel basket under ambient conditions. The sample is loaded and unloaded at 50% RH and 25° C. (typical room conditions). A moisture sorption isotherm is performed as outlined below (2 scans per complete cycle). The standard isotherm is performed at 25° C. at 10% RH intervals over a 0-90% RH range. Typically, a triple cycle is carried out. Data analysis is carried out using TA Instruments Universal Analysis 2000. [table]

[2] = comparison statement for selinexor itself; no medium given; cited from earlier work

DVS water adsorption [1]: does not adsorb water
SMILES: O=C(/C=C\n1cnc(-c2cc(C(F)(F)F)cc(C(F)(F)F)c2)n1)NNc1cnccn1 [selinexor, (Z)-3-(3-(3,5-bis(trifluoromethyl)phenyl)-IH-I,2,4-triazol-1-yl)-N′-(pyrazin-2yl)acrylohydrazide]
solubility [2]: low solubility
